Values joined by “and” are separate entries in the source; they are usually repeats but may differ in a detail not shown here. Identical values can stand only once.
Settings: Liquid, Vibrating tube method

CCCCCCC(=O)OCC(COC(=O)CCCCCC)(COC(=O)CCCCCC)COC(=O)CCCCCC [pentaerythritol tetraheptanoate]
Settings | mass density
323.14 K, 25915 kPa | 972.2 kg/m3
323.14 K, 25942 kPa | 972.3 kg/m3
323.14 K, 25974 kPa | 972.2 kg/m3
323.14 K, 26002 kPa | 972.3 kg/m3
323.14 K, 26088 kPa | 972.3 kg/m3
323.14 K, 26774 kPa | 972.7 kg/m3
323.14 K, 26808 kPa | 972.6 kg/m3
323.14 K, 26837 kPa | 972.6 kg/m3
323.14 K, 26866 kPa | 972.9 kg/m3
323.14 K, 27024 kPa | 972.9 kg/m3
323.14 K, 27055 kPa | 972.9 kg/m3
323.14 K, 27085 kPa | 972.9 kg/m3
323.14 K, 27114 kPa | 973 kg/m3
323.14 K, 27150 kPa | 973 kg/m3
323.14 K, 27179 kPa | 972.9 kg/m3
323.14 K, 27214 kPa | 973 kg/m3
323.14 K, 27244 kPa | 973 kg/m3
323.14 K, 27274 kPa | 973.1 kg/m3
323.14 K, 27565 kPa | 973.2 kg/m3
323.14 K, 27596 kPa | 973.2 kg/m3
323.14 K, 27731 kPa | 973.3 kg/m3
323.14 K, 27762 kPa | 973.3 kg/m3
323.14 K, 27825 kPa | 973.3 kg/m3
323.14 K, 27863 kPa | 973.4 kg/m3
323.14 K, 27895 kPa | 973.4 kg/m3
323.14 K, 28027 kPa | 973.5 kg/m3
323.14 K, 28373 kPa | 973.8 kg/m3
323.14 K, 28406 kPa | 973.7 kg/m3
323.14 K, 28439 kPa | 973.7 kg/m3
323.14 K, 28757 kPa | 973.8 kg/m3
323.14 K, 28791 kPa | 973.9 kg/m3
323.14 K, 28831 kPa | 973.9 kg/m3
323.14 K, 28904 kPa | 973.9 kg/m3
323.14 K, 28938 kPa | 974 kg/m3
323.14 K, 28973 kPa | 974.1 kg/m3
323.14 K, 29048 kPa | 974.1 kg/m3
323.14 K, 29083 kPa | 974.1 kg/m3
323.14 K, 29124 kPa | 974.1 kg/m3
323.14 K, 29158 kPa | 974.1 kg/m3
323.14 K, 29193 kPa | 974.1 kg/m3
323.14 K, 29227 kPa | 974.2 kg/m3
323.14 K, 29270 kPa | 974.2 kg/m3
323.14 K, 29304 kPa | 974.3 kg/m3
323.14 K, 29346 kPa | 974.3 kg/m3
323.14 K, 29381 kPa | 974.2 kg/m3
323.14 K, 29416 kPa | 974.2 kg/m3
323.14 K, 29451 kPa | 974.2 kg/m3
323.14 K, 29494 kPa | 974.4 kg/m3
323.14 K, 29529 kPa | 974.4 kg/m3
323.14 K, 30197 kPa | 974.6 kg/m3
323.14 K, 30480 kPa | 974.8 kg/m3
323.14 K, 30518 kPa | 975 kg/m3
323.14 K, 30556 kPa | 974.9 kg/m3
323.14 K, 30596 kPa | 974.9 kg/m3
323.14 K, 30642 kPa | 975 kg/m3
323.14 K, 30681 kPa | 975.1 kg/m3
323.14 K, 30728 kPa | 975.2 kg/m3
323.14 K, 30768 kPa | 975 kg/m3
323.14 K, 30807 kPa | 975.1 kg/m3
323.14 K, 30846 kPa | 975 kg/m3
323.14 K, 30893 kPa | 975.2 kg/m3
323.14 K, 30933 kPa | 975.1 kg/m3
323.14 K, 30973 kPa | 975.1 kg/m3
323.14 K, 31020 kPa | 975.2 kg/m3
323.14 K, 31060 kPa | 975.2 kg/m3
323.14 K, 31108 kPa | 975.2 kg/m3
323.14 K, 31148 kPa | 975.2 kg/m3
323.14 K, 31188 kPa | 975.3 kg/m3
323.14 K, 31237 kPa | 975.2 kg/m3
323.14 K, 31277 kPa | 975.4 kg/m3
323.14 K, 31319 kPa | 975.3 kg/m3
323.14 K, 31359 kPa | 975.4 kg/m3
323.14 K, 31408 kPa | 975.4 kg/m3
323.14 K, 31448 kPa | 975.4 kg/m3
323.14 K, 31497 kPa | 975.6 kg/m3
323.14 K, 31539 kPa | 975.5 kg/m3
323.14 K, 31580 kPa | 975.4 kg/m3
323.14 K, 31621 kPa | 975.5 kg/m3
323.14 K, 31671 kPa | 975.6 kg/m3
323.14 K, 31712 kPa | 975.5 kg/m3
323.14 K, 31762 kPa | 975.8 kg/m3
323.14 K, 31804 kPa | 975.8 kg/m3
323.14 K, 31847 kPa | 975.7 kg/m3
323.14 K, 31898 kPa | 975.6 kg/m3
323.14 K, 31940 kPa | 975.7 kg/m3
323.14 K, 31982 kPa | 975.8 kg/m3
323.14 K, 32450 kPa | 976.1 kg/m3
323.14 K, 32496 kPa | 976 kg/m3
323.14 K, 32540 kPa | 976 kg/m3
323.14 K, 32584 kPa | 976.2 kg/m3
323.14 K, 32637 kPa | 976.1 kg/m3
323.14 K, 32681 kPa | 976.1 kg/m3
323.14 K, 33266 kPa | 976.4 kg/m3
323.14 K, 33360 kPa | 976.5 kg/m3
323.14 K, 33416 kPa | 976.4 kg/m3
323.14 K, 34625 kPa | 977.3 kg/m3
323.15 K, 99.4 kPa | 955.6 kg/m3
323.15 K, 99.5 kPa | 955.5 kg/m3 and 955.6 kg/m3 and 955.7 kg/m3
323.15 K, 99.7 kPa | 955.7 kg/m3 and 955.6 kg/m3
323.15 K, 99.8 kPa | 955.7 kg/m3
323.15 K, 99.9 kPa | 955.7 kg/m3 and 955.8 kg/m3 and 955.6 kg/m3
323.15 K, 100 kPa | 955.7 kg/m3 and 955.8 kg/m3 and 955.6 kg/m3
323.15 K, 100.2 kPa | 955.7 kg/m3 [middle of 4 runs]
323.15 K, 100.4 kPa | 955.7 kg/m3 and 955.8 kg/m3 and 955.6 kg/m3
323.15 K, 100.5 kPa | 955.6 kg/m3 and 955.7 kg/m3
323.15 K, 100.6 kPa | 955.6 kg/m3 and 955.7 kg/m3 and 955.8 kg/m3
323.15 K, 100.7 kPa | 955.8 kg/m3 and 955.7 kg/m3 and 955.5 kg/m3
323.15 K, 100.9 kPa | 955.7 kg/m3
323.15 K, 101.1 kPa | 955.6 kg/m3 and 955.7 kg/m3
323.15 K, 101.3 kPa | 955.6 kg/m3
323.15 K, 101.5 kPa | 955.8 kg/m3 and 955.7 kg/m3
323.15 K, 101.6 kPa | 955.7 kg/m3

Reference: the NIST ThermoML archive (doi:10.1021/je060271a)
